pIC50: −log10 of the molar value.
Key:
BV-2 [1] = assay: Antiinflammatory activity in mouse BV2 cells assessed as inhibition of LPS-induced nitric oxide production incubated for 24 hrs by Griess assay; format: functional, cell-based; details: BV-2, 24 h
BV-2 [2] = assay: Cytotoxicity against mouse BV2 cells assessed as effect on cell survival by MTT assay; format: cell-based

| pIC50 (BV-2 [1]) | Compound | Activity (BV-2 [2]) |
| --- | --- | --- |
| 4.54 | C=C1C[C@@]23CC[C@H]4[C@@](C)(CCC(=O)[C@@]4(C)COC(=O)/C(C)=C/C)[C@@H]2C[C@@H]1CC3=O | Non-Toxic |
| < 5.00 | C=C[C@]1(C)C=C2CC[C@H]3[C@](C)(C=O)[C@@H](O)CC[C@]3(C)[C@H]2CC1 [SANDARACOPIMARADIENOLAL] | Non-Toxic |
| < 4.00 | C/C=C(\C)C(=O)O[C@H]1[C@H]2[C@@H]([C@@H](OC(C)=O)[C@@H](C)C(=O)[C@@]34C[C@H](C)[C@H](OC(C)=O)[C@]3(/C=C(\C)[C@H]1O)O4)C2(C)C | Non-Toxic |
| < 4.00 | CC1(C)C(=O)CC[C@]2(C)[C@@H]1CC[C@@]13C[C@H](CC[C@H]12)[C@@](O)(CO)C3 | Non-Toxic |
| 4.60 | C=C1C[C@]23CC[C@H]1C[C@H]2[C@]1(C)CCC(=O)[C@@](C)(CO)[C@H]1CC3 | Non-Toxic |
| 4.82 | CC1=C2[C@H]3O[C@]34CC[C@@H]3C(C)(C)CCC[C@@]3(C)[C@@H]4C[C@H]2OC1=O | Non-Toxic |
| 4.11 | C=C1C[C@@]23CC[C@H]4[C@@](C)(CCC(=O)[C@@]4(C)COC(C)=O)[C@@H]2C[C@@H]1CC3=O | Non-Toxic |
| < 4.00 | C=C1C[C@@]23CC[C@H]4[C@@](C)(CCC(=O)[C@@]4(C)COC(=O)CCC)[C@@H]2C[C@@H]1[C@@H](O)C3=O | Non-Toxic |
| 4.37 | CCCC(=O)OC[C@]1(C)C(=O)CC[C@@]2(C)[C@@H]3CC[C@@H]4C[C@@]3(CC[C@@H]21)C[C@@]4(O)CO | Non-Toxic |
| 4.57 | C/C=C(\C)C(=O)O[C@H]1[C@H]2[C@@H]([C@@H](OC(C)=O)[C@@H](C)C(=O)[C@@]34C[C@H](C)[C@H](OC(=O)/C(C)=C/C)[C@]3(/C=C(\C)[C@H]1O)O4)C2(C)C | Non-Toxic |
| < 4.00 | C=C1C[C@@]23CC[C@H]4[C@@](C)(CCC(=O)[C@@]4(C)COC(C)=O)[C@@H]2C[C@@H]1[C@@H](O)C3=O | Non-Toxic |
| 4.84 | C/C=C(\C)C(=O)O[C@H]1[C@H]2[C@@H]([C@@H](OC(C)=O)[C@@H](C)C(=O)[C@@]34C[C@H](C)[C@H](OC(=O)c5ccccc5)[C@]3(/C=C(\C)[C@H]1O)O4)C2(C)C | Non-Toxic |
| 5.04 | CC1(C)CCC[C@]2(C)[C@@H]1CC[C@@]13O[C@@H]1C1=C(CO)C(=O)OC1=C[C@@H]23 | Non-Toxic |
| 4.62 | CC(=O)O[C@H]1CCC(C)(C)[C@H]2CC[C@@]34O[C@@H]3C3=C(C)C(=O)O[C@@H]3C[C@H]4[C@]12C | Non-Toxic |
| < 4.22 | C=C1C[C@@]23CC[C@H]4[C@@](C)(CCC(=O)[C@@]4(C)COC(=O)CCC)[C@@H]2C[C@@H]1CC3=O | Non-Toxic |
| 4.12 | CCC(=O)OC[C@]1(C)C(=O)CC[C@@]2(C)[C@@H]3C[C@@H]4CC[C@@]3(CC[C@@H]21)C[C@@]4(O)CO | Non-Toxic |
| 5.51 | CSC(=N)N.O=S(=O)(O)O | Non-Toxic |
| 4.35 | C=C1C[C@@]23CC[C@H]4[C@@](C)(CCC(=O)[C@@]4(C)COC(=O)/C(C)=C/C)[C@@H]2C[C@@H]1[C@@H](O)C3=O | Non-Toxic |
| 4.37 | CCCC(=O)OC[C@]1(C)C(=O)CC[C@@]2(C)[C@@H]3C[C@@H]4CC[C@@]3(CC[C@@H]21)C[C@@]4(O)CO | Non-Toxic |
